Experimental data taken from patent EP1228058B1, “BENZOPYRANYL GUANIDINE DERIVATIVES, PROCESS FOR PREPARATION THEREOF, AND PHARMACEUTICAL COMPOSITIONS CONTAINING THEM” (Dongbu Hannong Chemical Co., Ltd., priority 1999, dated 2001).

Experiments:
rat aorta = experiment: Vasodilation effects on isolated blood vessels of rats (methoxamine-constricted aortic rings); format: cell-based; conditions: isolated rat aorta constricted with methoxamine (3 uM); read-out: Vasodilation Activity (in Vitro, rat aorta) (IC50)
[1] = tested on: cerebral cortical neurons; experiment: Protective activity for neurons against iron-induced death (LDH release); format: cell-based; conditions: Rattus norvegicus, Cortical neurone, FeSO4 50 uM, 24 hours, LDH reduction, read-out: % Protection
Protocol: From the brains of 17-18 day-old rat embryos, cerebral cortical neurons were isolated and then, cultured at 37 °C for 7-9 days in a 5% CO2 incubator. The cortical cell cultures were washed twice with a minimum essential medium (MEM) to reduce the serum concentration to 0.2 % and pre-treated for 30 min with 10 uM and 30 uM of each of test compounds. For the experiments, the test compounds were dissolved in DMSO and diluted in a medium. At this time, the final concentration of DMSO was not allowed to exceed 0.2 %. For a control group, only vehicle was applied.
After the pre-treatment with test compounds or vehicle, FeSO4 was added to a final concentration of 50 uM, and the cultures were maintained for 24 hours in a CO2 incubator. During incubation, lactate dehydrogenase (LDH) was released into the medium upon neuronal death by the oxidative toxicity of iron. The extent of neuronal damage was assessed by measuring the amount of LDH secreted into the media. The protective effect of the compounds of interest on neurons was evaluated by calculating the LDH reduction rate of treatment group compared with that of the control group.

RAW 264.7 cells = experiment: Inhibition of LPS-induced NO production (Griess reagent); format: cell-based, murine; conditions: Mus musculus, 24 hours; for inhibition at 33 µM: RAW264.7, 33 uM; for inhibition at 100 µM: RAW264.7, 100 uM
Protocol: Using RPMI1640 media supplemented with 10% fetal bovine serum (FBS), RAW 264.7 cells (obtained from American Type Culture Collection), a murine macrophage cell line, were cultured at 37 °C in a 5% CO2 incubator. The RAW264.7 cells were harvested and cell density was adjusted to 5x10^5/ml with a RPMI medium supplemented with 0.5% FBS and plated at 5x10^4 cells/well to 96-well plates, which were then cultured for 20 hr in a CO2 incubator. After removal of the media, the cells were pre-treated for 1 hour with fresh media containing 33 uM and 100 uM of test compounds. The test compounds were dissolved in DMSO and diluted to respective concentration in the media. In order to minimize DMSO effect on the nitric oxide formation by the RAW264.7 cells in the wells, the media were allowed to contain DMSO at a concentration of 0.1 % or less.
After completion of one hour pre-treatment, lipopolysaccharide (LPS, E. coli serotype 055:B5) was added to activate the cells, which were, then, maintained for 24 hours in a CO2 incubator. As a result of the activation of RAW264.7 cells with LPS, NO was formed. The NO released into the media was in a form of nitrite NO2^- and quantitatively measured using the Griess reagent. A control was treated only with vehicle instead of test compounds.
The inhibitory effects of the test compounds against NO production were determined as the reduction of NO quantity compared with that of the control group.

SMILES	IC50 (rat aorta)	inhibition at 10 µM [1]	inhibition at 30 µM [1]	inhibition at 33 µM (RAW 264.7 cells)	inhibition at 100 µM (RAW 264.7 cells)
COC(OC)[C@@]1(C)Oc2ccc([N+](=O)[O-])cc2[C@H](NC(=NC#N)NCc2ccccc2)[C@H]1O [Example 24, (2S, 3R, 4S)-N''-cyano-N-(6-nitro-3,4-dihydro-3-hydroxy-2-methyl-2-dimethoxymethyl-2H-benzopyran-4-yl)-N'-benzylguanidine]	9.78 µM	29%	47%	16%	48%
COC(OC)[C@@]1(C)Oc2ccc([N+](=O)[O-])cc2[C@@H](NC(=NC#N)NCc2ccccc2)[C@@H]1O [Example 25, (2S, 3S, 4R)-N''-cyano-N-(6-nitro-3,4-dihydro-3-hydroxy-2-methyl-2-dimethoxymethyl-2H-benzopyran-4-yl)-N'-benzylguanidine]	> 30 µM	–	69%	39%	54%
COC(OC)[C@@]1(C)Oc2ccc([N+](=O)[O-])cc2[C@H](NC(=NC#N)Nc2ccccc2Cl)[C@H]1O [Example 32, (2S, 3R, 4S)-N''-cyano-N-(6-nitro-3,4-dihydro-3-hydroxy-2-methyl-2-dimethoxymethyl-2H-benzopyran-4-yl)-N'-(2-chlorophenyl)guanidine]	3.57 µM	–	–	–	83%
COC(OC)[C@@]1(C)Oc2ccc([N+](=O)[O-])cc2[C@@H](NC(=NC#N)NCc2ccccc2)[C@@H]1OC(C)=O [Example 38, (2S, 3S, 4R)-N''-cyano-N-(6-nitro-3,4-dihydro-3-acetoxy-2-methyl-2-dimethoxymethyl-2H-benzopyran-4-yl)-N'-benzylguanidine]	24.5 µM	56%	78%	56%	85%
COC(OC)[C@@]1(C)Oc2ccc(N)cc2[C@@H](NC(=NC#N)NCc2ccccc2)[C@@H]1O [Example 40, (2S, 3S, 4R)-N''-cyano-N-(6 - amino-3,4-dihydro-3-hydroxy-2-methyl-2-dimethoxymethyl-2H-benzopyran-4-yl)-N'-benzylguanidine]	> 30 µM	45%	97%	–	26%
